Publication PMC8306876, “A New N-Substituted 1H-Isoindole-1,3(2H)-Dione Derivative—Synthesis, Structure and Affinity for Cyclooxygenase Based on In Vitro Studies and Molecular Docking” (International Journal of Molecular Sciences, 2021)
Several values for one entry are separate records, joined by “and”; a condition that tells them apart may be missing. Identical values can stand only once. Marks after values point to notes of the source that are not given here.

Experiments:
COX-2 = target: T1, COX-2 (Homo sapiens, UniProt P35354); test: Cyclooxygenase inhibition assay (Cayman kit No. 701050, COX peroxidase activity), COX-2; format: biochemical; details: for IC50: incubation for 2 min, mean (SD), n = 3; for Ratio: COX-2/COX-1: ratio of IC50 values (COX-2/COX-1)
T1 construct: purchased Cayman 701050
T1 sequence (P35354 18-604): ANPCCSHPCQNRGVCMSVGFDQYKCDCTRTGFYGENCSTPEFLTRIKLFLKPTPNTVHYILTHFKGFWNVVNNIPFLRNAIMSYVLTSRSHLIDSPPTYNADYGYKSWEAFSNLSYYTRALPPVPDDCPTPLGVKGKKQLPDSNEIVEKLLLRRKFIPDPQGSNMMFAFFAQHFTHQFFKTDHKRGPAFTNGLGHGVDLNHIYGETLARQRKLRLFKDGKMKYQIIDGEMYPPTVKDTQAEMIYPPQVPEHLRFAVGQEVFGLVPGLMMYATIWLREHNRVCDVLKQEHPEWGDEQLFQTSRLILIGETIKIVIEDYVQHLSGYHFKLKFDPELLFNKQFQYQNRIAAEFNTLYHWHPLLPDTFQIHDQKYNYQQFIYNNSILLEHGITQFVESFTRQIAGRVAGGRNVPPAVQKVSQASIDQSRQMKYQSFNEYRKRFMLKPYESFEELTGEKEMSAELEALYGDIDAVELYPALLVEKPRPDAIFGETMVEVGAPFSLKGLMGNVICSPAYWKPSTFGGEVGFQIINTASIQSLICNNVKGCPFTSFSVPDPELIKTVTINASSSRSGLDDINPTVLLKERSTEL
Description: Absorbance was measured with a microplate reader at 590 nm. […] Ratios of IC50 values (COX-2/COX-1) were also calculated

NHDF cells [1] = test: RNS (NO) level, Griess reagents after LPS preincubation; format: cell-based; details: 100 µM compound for 1 h after 24 h with 50 µM LPS; (SD) n = 6
Description: (§1) The ROS and RNS were evaluated using DCF–DA assay and Griess reagents, respectively. First, the cells were incubated with 50 µM LPS for 24 h to induce cell stress. Then, after the cells were washed, the 100 µM tested compounds were added for 1 h. Finally, the 50 µL supernatant was transferred to a new plate and added 50 µL of mixture A (1% sulfanilamide in 5% phosphoric acid) and B (0.1% N-(1-Naphthyl)ethylenediamine dihydrochloride) Griess reagents in a volume ratio 1:1 for 20 min in the dark. After that time, the absorbance was measured at 540 nm using a microplate reader. Simultaneously, the rest of the supernatant was removed from the above cell cultures, and 25 µM DCF–DA solution in MEM (without serum and phenol red) was added and left at 37 °C for 1 h and finally, determined fluorometrically with excitation at 485 nm and emission at 535 nm using a microplate reader.
(§2) The NO level was presented as concentration calculated using a standard curve (prepared in parallel with the conducted research). The ROS level was shown as ratio E/E0, where E0 is fluorescence with the positive control (cells incubated with 50 µM LPS) and E is a fluorescence with tested compound at 100 µM. Finally, the DNA damage was calculated as the ratio of cell nucleus diameter to halo diameter (a measure of DNA damage).
(§3) All statistical analysis performed were compared to the control—healthy cells (MTT assay), and positive control (incubated with 50 µM LPS) for DCF–DA, Griess, and DNA damaged. The data have a normal distribution and equality of variance, so ANOVA and post-hoc Scheffe methods were performed. The significance level was set at p < 0.05.

NHDF cells [2] = test: DNA damage (chromatin relaxation, nucleus/halo diameter) after LPS preincubation; format: cell-based; details: ratio of cell nucleus diameter to halo diameter; 1 h with compound after 24 h with 50 µM LPS; (SD) n = 6
Description: However, the cells were detached at the surface after 1h of incubation with the tested compound for evaluating DNA damage. The cells were then subjected to an analogous procedure as described in Grajzer et al..
as §2, §3

COX-1 = target: T2, COX-1 (Ovis aries, UniProt P05979); test: Cyclooxygenase inhibition assay (Cayman kit No. 701050, COX peroxidase activity), COX-1; format: biochemical; details: incubation for 2 min; mean (SD); n = 3
T2 construct: purchased Cayman 701050
T2 sequence (P05979 25-600): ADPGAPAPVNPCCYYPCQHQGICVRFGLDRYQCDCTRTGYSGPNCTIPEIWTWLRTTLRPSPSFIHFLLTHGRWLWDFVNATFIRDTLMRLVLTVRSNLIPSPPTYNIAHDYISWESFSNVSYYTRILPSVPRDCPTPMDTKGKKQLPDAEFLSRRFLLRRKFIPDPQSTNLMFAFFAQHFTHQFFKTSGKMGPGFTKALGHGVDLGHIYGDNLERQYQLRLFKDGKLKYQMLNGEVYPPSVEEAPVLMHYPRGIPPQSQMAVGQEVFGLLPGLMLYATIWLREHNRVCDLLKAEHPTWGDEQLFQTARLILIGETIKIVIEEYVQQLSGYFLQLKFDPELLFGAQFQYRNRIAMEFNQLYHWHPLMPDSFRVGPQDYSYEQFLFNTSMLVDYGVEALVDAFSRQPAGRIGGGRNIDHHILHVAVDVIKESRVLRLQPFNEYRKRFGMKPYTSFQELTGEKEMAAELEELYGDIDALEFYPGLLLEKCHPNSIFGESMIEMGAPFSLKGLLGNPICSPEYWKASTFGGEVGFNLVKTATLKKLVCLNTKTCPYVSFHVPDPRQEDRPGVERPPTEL
Description: Cayman kit No. 701050 was used to evaluate the COX peroxidase activity of all compounds at a concentration of 100 µM. Absorbance was measured with a microplate reader at 590 nm. Concentrations at which 50% inhibition of enzyme activity occurred were calculated separately for COX-1 and COX-2 (IC50). Ratios of IC50 values (COX-2/COX-1) were also calculated

NHDF cells [3] = test: Cell viability, MTT assay; format: cell-based; details: Homo sapiens, NHDF cell cultures, 24 h incubation, read-out: Cell Viability IC50 (µM) (SD)
Description: The NHDF cells obtained from ATCC (Manasas, VA, USA) were incubated with DMEM without phenol red supplemented with 10% fetal bovine serum (FBS), 2 mM L-glutamine, 1.25 µg/mL amphotericin B and 100 µg/mL gentamicin at 37 °C in a humidified 5% CO2/95% air atmosphere incubator. The cell culture was examined under the microscope twice a week, and cells were passaged if confluence was greater than 70% or the medium was replaced with fresh medium.
The […] were prepared by dissolving compounds in DMSO and then stored at −20 °C for up to 6 months. Before the biological experimental, the working solution was dissolved in the medium in the concentration range of 10, 50, and 100 µM.
To evaluated cell viability, an MTT assay was performed. After incubation of cells with the tested compounds for 24 h, the supernatant was removed, and 1 mg/mL MTT solution was applied for 2 h. Next, the formazan was dissolved with propanol for 30 min, and absorbance was measured at 570 nm using a microplate reader. The results are presented as IC50.

NHDF cells [4] = test: ROS level, DCF-DA assay after LPS preincubation; format: cell-based; details: 100 µM compound after LPS preincubation
Description: as §1, §2, §3

SMILES | melting point | IC50 (COX-2) | Ratio: COX-2/COX-1 (COX-2) | IC50 (COX-1) | NO Level (pg/mL) (NHDF cells [1]) | DNA Damage (NHDF cells [2]) | IC50 (NHDF cells [3]) | scavenging of ROS compared to control (NHDF cells [4])
O=C1c2ccccc2C(=O)N1CN1CCN(c2ccccc2)CC1 [A, N-[(4-phenyl-1-piperazinyl)methyl]-1H-isoindole-1,3(2H)-dione] | 160 to 161 °C | 107 µM | 0.45 | 238 µM | 6.4 (0.14) pg/mL | 15.2 (0.04) * |  | 
COc1ccccc1N1CCN(CN2C(=O)c3ccccc3C2=O)CC1 [B, N-[(4-(2-methoxyphenyl)-1-piperazinyl)methyl]-1H-isoindole-1,3(2H)-dione] | 134 to 135 °C | 68.5 µM | 1.10 and 0.96 | 71 µM |  | 19.6 (0.09) * |  | 
O=C1c2ccccc2C(=O)N1CN1CCN(c2cccc(C(F)(F)F)c2)CC1 [Compound C] | 147 to 148 °C | 70.3 µM | 0.67 | 104 µM | 8.2 (0.03) * pg/mL | 23.2 (0.07) * |  | 
O=C1c2ccccc2C(=O)N1CN1CCN(C(c2ccccc2)c2ccccc2)CC1 [Compound D, N-[(4-(diphenyl-methyl)-1-piperazinyl)methyl]-1H-isoindole-1,3(2H)-dione] | 206 to 207 °C | 72.8 µM | 1.10 | 66.2 µM | 7.4 (0.12) pg/mL | 17.3 (0.04) * | 90.3 µM | 

Further lines, with some results ahead:

melting point | IC50 (COX-2) | Ratio: COX-2/COX-1 (COX-2) | IC50 (COX-1) | SMILES | NO Level (pg/mL) (NHDF cells [1]) | DNA Damage (NHDF cells [2]) | IC50 (NHDF cells [3]) | scavenging of ROS compared to control (NHDF cells [4])
155 to 156 °C | 43.8 µM | 0.25 | 176 µM | COc1cccc(N2CCN(C(=O)CN3C(=O)c4ccccc4C3=O)CC2)c1 [Compound H, 2-{2-oxo-2-[4-(3-methoxy)-phenyl-1-piperazinyl]ethyl}-1H-isoindole-1,3(2H)-dione] |  | 17.1 (0.04) * | 94.1 µM | approximately 29.0%
204 to 207 °C | 46.2 µM | 0.49 | 94.4 µM | COc1ccc(N2CCN(C(=O)CN3C(=O)c4ccccc4C3=O)CC2)cc1 [Compound I, 2-{2-oxo-2-[4-(4-methoxy)-phenyl-1-piperazinyl]ethyl}-1H-isoindole-1,3(2H)-dione] |  | 19.2 (0.08) * | 93.3 µM | approximately 29.0%
180 °C | 53.4 µM | 0.70 | 76.7 µM | O=C(CN1C(=O)c2ccccc2C1=O)N1CCN(c2ccccc2)CC1 [E, 2-[2-oxo-2-(4-phenyl-1-piperazinyl)ethyl]-1H-isoindole-1,3(2H)-dione] | 5.3 (0.07) * pg/mL | 18.4 (0.07) * |  | 
206 to 208 °C | 47.6 µM | 0.28 | 171 µM | O=C(CN1C(=O)c2ccccc2C1=O)N1CCN(c2cccc(C(F)(F)F)c2)CC1 [F, 2-{2-oxo-2-[4-(3-trifluoromethyl)-phenyl-1-piperazinyl]ethyl}-1H-isoindole-1,3(2H)-dione] | 9.1 (0.07) pg/mL | 20.1 (0.03) * |  | 
152 to 154 °C | 65.8 µM |  | 101 µM | COc1ccccc1N1CCN(C(=O)CN2C(=O)c3ccccc3C2=O)CC1 [G, 2-{2-oxo-2-[4-(2-methoxy)-phenyl-1-piperazinyl]ethyl}-1H-isoindole-1,3(2H)-dione] |  | 18.7 (0.07) * | 96.8 µM | approximately 29.0%
